Read-outs that look alike come from different tables or passages of the source.
How the values were obtained:
[1] = test system: Cabbage Looper (Trichoplusia ni) ("CL"), second instar larvae; test: Bioassay on cabbage looper (CL), 128-well diet tray assay; type: in vivo; conditions: for pest or weed control at 50 µg/cm2: Trichoplusia ni
Summary of the method: (§1)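 Covered trays were held at 25° C. under a 14:10 light-dark cycle for five to seven days. Percent mortality was then scored in each well, and activity across eight wells was averaged.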

[2] = test system: Beet Armyworm (Spodoptera exigua) ("BAW"), second instar larvae; test: Bioassay on beet armyworm (BAW), 128-well diet tray assay; type: in vivo; conditions: for pest or weed control at 50 µg/cm2: Spodoptera exigua
Summary of the method: as §1

[3] = read-out: CL (Biological Results, rating)
[4] = read-out: BAW (Biological Results, rating)

Row | Structure (SMILES) | pest or weed control at 50 µg/cm2 ([1]; read-out: CL rating) [%] | pest or weed control at 50 µg/cm2 ([2]; read-out: BAW rating) [%] | pest or weed control at 50 µg/cm2 [1, 3] [%] | pest or weed control at 50 µg/cm2 [2, 4] [%] | also measured
1 | Cc1ccc(OCCC(F)(F)F)c(N2C(=O)CS/C2=N\C(=O)Nc2ccc(-n3cnc(-c4ccc(C(F)(F)F)cc4)n3)cc2F)c1 [Compound J702, (Z)-1-(2-Fluoro-4-(3-(4-(trifluoromethyl)phenyl)-1H-1,2,4-triazol-1-yl)phenyl)-3-(3-(5-methyl-2-(3,3,3-trifluoropropoxy)phenyl)-4-oxothiazolidin-2-ylidene)urea] | 50 to 100 | 50 to 100 | – | – | –
2 | COc1ccc(C(C)C)c(N2C(=O)CS/C2=N\C(=O)Nc2ccc(-c3ncn(-c4ccc(OC(F)(F)F)cn4)n3)cc2F)c1 [Compound J239, (Z)-1-(2-Fluoro-4-(1-(5-(trifluoromethoxy)pyridin-2-yl)-1H-1,2,4-triazol-3-yl)phenyl)-3-(3-(2-isopropyl-5-methoxyphenyl)-4-oxothiazolidin-2-ylidene)urea] | – | – | 50 to 100 | 50 to 100 | –
3 | CCOC(C)c1ccc(C)cc1N1C(=O)CS/C1=N\C(=O)Nc1ccc(-c2ncn(-c3ccc(C(F)(F)F)cn3)n2)cc1F (stereo not drawn) [Compound J378] | – | – | – | – | CL rating ([1]; Table ABC, species CL, C = not tested, D = no activity noticed): A (50-100); BAW rating ([2]; Table ABC, species BAW, C = not tested, D = no activity noticed): A (50-100)
4 | CCCc1ccc(N(C)C)cc1N1C(=O)CS/C1=N\C(=O)Nc1ccc(-c2ncn(-c3ccc(OC(F)(F)F)cn3)n2)cc1C#N [Compound J269, (Z)-1-(2-Cyano-4-(1-(5-(trifluoromethoxy)pyridin-2-yl)-1H-1,2,4-triazol-3-yl)phenyl)-3-(3-(5-(dimethylamino)-2-propylphenyl)-4-oxothiazolidin-2-ylidene)urea] | – | – | 50 to 100 | 50 to 100 | –
5 | CCCCc1ccc(C)cc1N1C(=O)CS/C1=N\C(=O)Nc1ccc(-c2ncn(-c3ccc(OC(F)(F)F)cc3)n2)cc1F [Compound J44, (Z)-1-(3-(2-Butyl-5-methylphenyl)-4-oxothiazolidin-2-ylidene)-3-(2-fluoro-4-(1-(4-(trifluoromethoxy)phenyl)-1H-1,2,4-triazol-3-yl)phenyl)urea] | – | – | 50 to 100 | 50 to 100 | –
6 | Cc1ccc(OCCC(F)(F)F)c(N2C(=O)CS/C2=N\C(=O)Nc2ccc(-c3cn(-c4ccc(C(F)(F)F)cn4)cn3)cc2C)c1 [Compound J512, (Z)-1-(3-(5-Methyl-2-(3,3,3-trifluoropropoxy)phenyl)-4-oxothiazolidin-2-ylidene)-3-(2-methyl-4-(1-(5-(trifluoromethyl)pyridin-2-yl)-1H-imidazol-4-yl)phenyl)urea] | 50 to 100 | 50 to 100 | – | – | –
7 | CCCc1ccc(N(C)C)cc1N1C(=O)CS/C1=N\C(=O)Nc1ccc(-c2ncn(-c3ccc(OC(F)(F)F)cn3)n2)cc1C [Compound J254, (Z)-1-(3-(5-(Dimethylamino)-2-propylphenyl)-4-oxothiazolidin-2-ylidene)-3-(2-methyl-4-(1-(5-(trifluoromethoxy)pyridin-2-yl)-1H-1,2,4-triazol-3-yl)phenyl)urea] | – | – | 50 to 100 | 50 to 100 | –
8 | CN(C)c1ccc(C(F)(F)F)c(N2C(=O)CS/C2=N\C(=O)Nc2ccc(-c3ncn(-c4ccc(OC(F)(F)F)cn4)n3)cc2F)c1 [Compound J262, (Z)-1-(3-(5-(Dimethylamino)-2-(trifluoromethyl)phenyl)-4-oxothiazolidin-2-ylidene)-3-(2-fluoro-4-(1-(5-(trifluoromethoxy)pyridin-2-yl)-1H-1,2,4-triazol-3-yl)phenyl)urea] | – | – | 50 to 100 | 50 to 100 | –
9 | Cc1ccc(OCCC(F)(F)F)c(N2C(=O)CS/C2=N\C(=O)Nc2ccc(-n3cnc(-c4ccc(OC(F)(F)F)cc4)n3)cc2)c1 [Compound J404, (Z)-1-(3-(5-Methyl-2-(3,3,3-trifluoropropoxy)phenyl)-4-oxothiazolidin-2-ylidene)-3-(4-(3-(4-(trifluoromethoxy)phenyl)-1H-1,2,4-triazol-1-yl)phenyl)urea] | 50 to 100 | 50 to 100 | – | – | –

— patent US20230077362A1 (CORTEVA AGRISCIENCE LLC, priority 2019, published 2023)
